Data published in ChEMBL document CHEMBL1177794, “Broad spectrum alkynyl inhibitors of T315I Bcr-Abl” (Bioorg Med Chem Lett, 2010).

Assays:
[1] = biological target: Tyrosine-protein kinase Fgr (Homo sapiens) (UniProt P09769); assay: Inhibition of FGR at 10 uM; conditions: values are per cent of control
[2] = biological target: Insulin receptor-related protein (Homo sapiens) (UniProt P14616); assay: Inhibition of INSRR at 10 uM; conditions: values are per cent of control
[3] = biological target: Serine/threonine-protein kinase TAO2 (Homo sapiens) (UniProt Q9UL54); assay: Inhibition of TAOK2 at 10 uM
[4] = biological target: Serine/threonine-protein kinase MRCK beta (Homo sapiens) (UniProt Q9Y5S2); assay: Inhibition of MRCKB at 10 uM
[5] = biological target: Ribosomal protein S6 kinase alpha-3 (Homo sapiens) (UniProt P51812); assay: Inhibition of RSK2 N-terminal domain1 at 10 uM
[6] = biological target: Dual specificity protein kinase CLK4 (Homo sapiens) (UniProt Q9HAZ1); assay: Inhibition of CLK4 at 10 uM; conditions: values are per cent of control
[7] = biological target: Cyclin-dependent kinase-like 5 (Homo sapiens) (UniProt O76039); assay: Inhibition of CDKL5 at 10 uM; conditions: values are per cent of control
[8] = biological target: Mitogen-activated protein kinase kinase kinase 2 (Homo sapiens) (UniProt Q9Y2U5); assay: Inhibition of MAP3K2 at 10 uM; conditions: values are per cent of control
[9] = biological target: SRSF protein kinase 2 (Homo sapiens) (UniProt P78362); assay: Inhibition of SRPK2 at 10 uM
[10] = biological target: Serine/threonine-protein kinase RIO2 (Homo sapiens) (UniProt Q9BVS4); assay: Inhibition of RIOK2 at 10 uM; conditions: values are per cent of control
BaF3 = assay: Antiproliferative activity against mouse BAF3 cells expressing wild type Bcr-Abl; format: functional, cell-based
[11] = biological target: TGF-beta receptor type-2 (Homo sapiens) (UniProt P37173); assay: Inhibition of TGFBR2 at 10 uM
[12] = biological target: G protein-coupled receptor kinase 4 (Homo sapiens) (UniProt P32298); assay: Inhibition of GRK4 at 10 uM; conditions: values are per cent of control
[13] = biological target: Serine/threonine-protein kinase BRSK2 (Homo sapiens) (UniProt Q8IWQ3); assay: Inhibition of BRSK2 at 10 uM; values are per cent of control
[14] = biological target: Tyrosine-protein kinase ZAP-70 (Homo sapiens) (UniProt P43403); assay: Inhibition of ZAP70 at 10 uM; conditions: values are per cent of control
[15] = biological target: Cyclin-dependent kinase 4/cyclin D1 (Homo sapiens) (UniProt P11802+P24385); assay: Inhibition of CDK4/cyclin D1 at 10 uM; values are per cent of control
[16] = biological target: Serine/threonine-protein kinase MARK2 (Homo sapiens) (UniProt Q7KZI7); assay: Inhibition of MARK2 at 10 uM; conditions: values are per cent of control
[17] = biological target: BDNF/NT-3 growth factors receptor (Homo sapiens) (UniProt Q16620); assay: Inhibition of TRKB at 10 uM; conditions: values are per cent of control
[18] = biological target: STE20/SPS1-related proline-alanine-rich protein kinase (Homo sapiens) (UniProt Q9UEW8); assay: Inhibition of STK39 at 10 uM
[19] = biological target: Mitogen-activated protein kinase 12 (Homo sapiens) (UniProt P53778); assay: Inhibition of p38-gamma at 10 uM; values are per cent of control
[20] = test system: Tyrosine-protein kinase ABL1 (Homo sapiens), P00519 [H396P]; assay: Inhibition of phosphorylated ABL1 H396P mutant at 10 uM; conditions: values are per cent of control
[21] = biological target: Serine/threonine-protein kinase ULK2 (Homo sapiens) (UniProt Q8IYT8); assay: Inhibition of ULK2 at 10 uM; conditions: values are per cent of control
[22] = biological target: Activin receptor type-2B (Homo sapiens) (UniProt Q13705); assay: Inhibition of ACVR2B at 10 uM; values are per cent of control
[23] = biological target: Rho-associated protein kinase 1 (Homo sapiens) (UniProt Q13464); assay: Inhibition of ROCK1 at 10 uM
[24] = biological target: Rhodopsin kinase GRK7 (Homo sapiens) (UniProt Q8WTQ7); assay: Inhibition of GRK7 at 10 uM; conditions: values are per cent of control
[25] = biological target: Inhibitor of nuclear factor kappa-B kinase subunit epsilon (Homo sapiens) (UniProt Q14164); assay: Inhibition of IKK-epsilon at 10 uM; conditions: values are per cent of control
[26] = biological target: Death-associated protein kinase 3 (Homo sapiens) (UniProt O43293); assay: Inhibition of DAPK3 at 10 uM; conditions: values are per cent of control
[27] = biological target: Serine/threonine-protein kinase Nek5 (Homo sapiens) (UniProt Q6P3R8); assay: Inhibition of NEK5 at 10 uM
[28] = biological target: Serine/threonine-protein kinase NIM1 (Homo sapiens) (UniProt Q8IY84); assay: Inhibition of NIM1 at 10 uM
[29] = biological target: Bone morphogenetic protein receptor type-1B (Homo sapiens) (UniProt O00238); assay: Inhibition of BMPR1B at 10 uM; conditions: values are per cent of control
[30] = biological target: Tyrosine-protein kinase Blk (Homo sapiens) (UniProt P51451); assay: Inhibition of BLK at 10 uM; conditions: values are per cent of control
[31] = biological target: Cyclin-dependent kinase-like 3 (Homo sapiens) (UniProt Q8IVW4); assay: Inhibition of CDKL3 at 10 uM; conditions: values are per cent of control
[32] = biological target: Proto-oncogene tyrosine-protein kinase ROS (Homo sapiens) (UniProt P08922); assay: Inhibition of ROS1 at 10 uM
[33] = biological target: Rhodopsin kinase GRK1 (Homo sapiens) (UniProt Q15835); assay: Inhibition of GRK1 at 10 uM; conditions: values are per cent of control
[34] = biological target: Phosphatidylinositol 4,5-bisphosphate 3-kinase catalytic subunit alpha isoform (Homo sapiens) (UniProt P42336); assay: Inhibition of PIK3CA at 10 uM; values are per cent of control
[35] = biological target: Mitogen-activated protein kinase kinase kinase kinase 4 (Homo sapiens) (UniProt O95819); assay: Inhibition of MAP4K4 at 10 uM; conditions: values are per cent of control
[36] = biological target: Serine/threonine-protein kinase LATS2 (Homo sapiens) (UniProt Q9NRM7); assay: Inhibition of LATS2 at 10 uM; values are per cent of control
[37] = biological target: Serine/threonine-protein kinase Nek6 (Homo sapiens) (UniProt Q9HC98); assay: Inhibition of NEK6 at 10 uM
[38] = biological target: Epidermal growth factor receptor (Homo sapiens) (UniProt P04626+P00533+Q15303+P21860); assay: Inhibition of EGFR E746-A750del mutant at 10 uM; values are per cent of control
[39] = biological target: Calcium/calmodulin-dependent protein kinase type 1 (Homo sapiens) (UniProt Q14012); assay: Inhibition of CAMK1 at 10 uM; conditions: values are per cent of control
[40] = biological target: Serine/threonine-protein kinase Nek11 (Homo sapiens) (UniProt Q8NG66); assay: Inhibition of NEK11 at 10 uM
[41] = biological target: Mitogen-activated protein kinase 11 (Homo sapiens) (UniProt Q15759); assay: Inhibition of p38beta at 10 uM; values are per cent of control
[42] = biological target: Receptor-type tyrosine-protein kinase FLT3 (Homo sapiens) (UniProt P36888); assay: Inhibition of FLT3 at 10 uM; conditions: values are per cent of control

Serine/threonine-protein kinase MRCK beta (Homo sapiens), sequence (Q9Y5S2 whole entry, the tested form may be a part): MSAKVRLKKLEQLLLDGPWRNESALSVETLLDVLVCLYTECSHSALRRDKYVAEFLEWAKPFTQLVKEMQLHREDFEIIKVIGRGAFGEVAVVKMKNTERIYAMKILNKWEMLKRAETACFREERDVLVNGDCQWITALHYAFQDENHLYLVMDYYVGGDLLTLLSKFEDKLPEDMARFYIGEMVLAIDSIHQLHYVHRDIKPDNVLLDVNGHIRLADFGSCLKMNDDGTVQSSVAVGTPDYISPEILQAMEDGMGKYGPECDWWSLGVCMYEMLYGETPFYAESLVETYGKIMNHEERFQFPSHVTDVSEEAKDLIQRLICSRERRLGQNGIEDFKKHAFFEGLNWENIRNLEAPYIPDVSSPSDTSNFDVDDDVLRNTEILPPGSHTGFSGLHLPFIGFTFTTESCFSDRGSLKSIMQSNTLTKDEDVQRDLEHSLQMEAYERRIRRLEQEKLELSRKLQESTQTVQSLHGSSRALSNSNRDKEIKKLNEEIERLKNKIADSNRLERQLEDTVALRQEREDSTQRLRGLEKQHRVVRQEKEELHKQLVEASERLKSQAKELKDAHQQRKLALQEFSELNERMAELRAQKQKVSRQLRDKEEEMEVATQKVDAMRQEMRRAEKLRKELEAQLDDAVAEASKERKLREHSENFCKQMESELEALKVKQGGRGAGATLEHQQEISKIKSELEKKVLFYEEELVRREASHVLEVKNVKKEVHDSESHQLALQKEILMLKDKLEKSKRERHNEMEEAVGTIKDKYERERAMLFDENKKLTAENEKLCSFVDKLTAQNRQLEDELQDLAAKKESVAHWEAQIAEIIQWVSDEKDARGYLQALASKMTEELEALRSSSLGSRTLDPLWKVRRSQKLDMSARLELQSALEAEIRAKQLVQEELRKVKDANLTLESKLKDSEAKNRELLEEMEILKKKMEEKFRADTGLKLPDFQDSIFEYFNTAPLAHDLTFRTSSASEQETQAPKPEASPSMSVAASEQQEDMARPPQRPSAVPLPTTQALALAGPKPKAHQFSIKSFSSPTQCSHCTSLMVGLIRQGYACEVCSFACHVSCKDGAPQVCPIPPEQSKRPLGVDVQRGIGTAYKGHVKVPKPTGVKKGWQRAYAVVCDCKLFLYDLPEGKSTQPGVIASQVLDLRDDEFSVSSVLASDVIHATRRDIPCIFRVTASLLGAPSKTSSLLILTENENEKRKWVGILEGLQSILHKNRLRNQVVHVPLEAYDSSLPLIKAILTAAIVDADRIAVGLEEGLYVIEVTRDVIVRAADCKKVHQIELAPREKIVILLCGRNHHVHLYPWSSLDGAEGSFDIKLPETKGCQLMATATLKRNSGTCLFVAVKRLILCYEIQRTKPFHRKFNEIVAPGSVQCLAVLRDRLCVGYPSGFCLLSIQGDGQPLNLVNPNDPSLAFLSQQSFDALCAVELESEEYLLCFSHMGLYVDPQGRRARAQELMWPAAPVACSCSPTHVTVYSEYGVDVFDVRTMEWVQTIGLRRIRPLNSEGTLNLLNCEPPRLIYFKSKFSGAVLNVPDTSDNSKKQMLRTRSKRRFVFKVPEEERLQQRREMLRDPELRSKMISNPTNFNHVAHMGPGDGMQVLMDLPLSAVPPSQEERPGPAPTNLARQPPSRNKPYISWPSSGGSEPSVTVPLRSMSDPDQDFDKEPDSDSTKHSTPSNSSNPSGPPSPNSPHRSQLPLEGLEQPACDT
Serine/threonine-protein kinase Nek6 (Homo sapiens), sequence (Q9HC98 whole entry): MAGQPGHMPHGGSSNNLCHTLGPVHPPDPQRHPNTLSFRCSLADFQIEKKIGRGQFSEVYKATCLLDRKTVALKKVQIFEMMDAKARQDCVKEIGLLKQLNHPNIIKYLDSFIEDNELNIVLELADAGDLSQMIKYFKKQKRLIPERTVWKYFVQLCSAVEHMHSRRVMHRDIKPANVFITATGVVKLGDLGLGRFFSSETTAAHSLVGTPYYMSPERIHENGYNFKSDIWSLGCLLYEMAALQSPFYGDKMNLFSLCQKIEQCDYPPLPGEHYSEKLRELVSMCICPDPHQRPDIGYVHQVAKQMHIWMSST
Inhibitor of nuclear factor kappa-B kinase subunit epsilon (Homo sapiens), sequence (Q14164 whole entry): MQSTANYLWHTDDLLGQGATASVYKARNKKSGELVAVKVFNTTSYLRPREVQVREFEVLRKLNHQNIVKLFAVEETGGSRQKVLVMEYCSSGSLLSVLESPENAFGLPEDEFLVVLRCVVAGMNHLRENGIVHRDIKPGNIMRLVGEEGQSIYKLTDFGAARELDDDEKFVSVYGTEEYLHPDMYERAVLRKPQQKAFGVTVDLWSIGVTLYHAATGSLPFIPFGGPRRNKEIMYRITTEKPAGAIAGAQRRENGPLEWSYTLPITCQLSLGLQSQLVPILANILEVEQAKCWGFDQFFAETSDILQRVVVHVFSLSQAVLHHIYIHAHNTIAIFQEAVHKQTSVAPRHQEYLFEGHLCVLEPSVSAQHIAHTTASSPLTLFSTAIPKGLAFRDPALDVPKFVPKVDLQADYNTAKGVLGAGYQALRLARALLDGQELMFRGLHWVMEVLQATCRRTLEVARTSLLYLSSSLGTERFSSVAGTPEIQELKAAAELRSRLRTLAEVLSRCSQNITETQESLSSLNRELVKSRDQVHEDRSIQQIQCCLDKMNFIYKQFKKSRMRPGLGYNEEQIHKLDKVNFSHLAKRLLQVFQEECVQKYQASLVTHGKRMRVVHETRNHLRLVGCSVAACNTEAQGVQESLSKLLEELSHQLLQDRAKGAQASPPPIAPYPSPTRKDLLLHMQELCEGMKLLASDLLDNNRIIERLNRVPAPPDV
Calcium/calmodulin-dependent protein kinase type 1 (Homo sapiens), sequence (Q14012 whole entry, looked up): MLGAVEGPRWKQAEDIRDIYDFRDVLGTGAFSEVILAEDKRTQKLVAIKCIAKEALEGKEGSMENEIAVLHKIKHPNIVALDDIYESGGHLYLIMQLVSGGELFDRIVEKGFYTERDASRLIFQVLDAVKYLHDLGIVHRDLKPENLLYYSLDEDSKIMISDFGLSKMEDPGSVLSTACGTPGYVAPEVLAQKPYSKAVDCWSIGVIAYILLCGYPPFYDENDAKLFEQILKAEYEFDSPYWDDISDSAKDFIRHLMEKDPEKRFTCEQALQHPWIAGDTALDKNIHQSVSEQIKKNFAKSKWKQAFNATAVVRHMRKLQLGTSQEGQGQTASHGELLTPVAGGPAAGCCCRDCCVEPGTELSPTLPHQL
Insulin receptor-related protein (Homo sapiens), sequence (P14616 27-742 limits assumed): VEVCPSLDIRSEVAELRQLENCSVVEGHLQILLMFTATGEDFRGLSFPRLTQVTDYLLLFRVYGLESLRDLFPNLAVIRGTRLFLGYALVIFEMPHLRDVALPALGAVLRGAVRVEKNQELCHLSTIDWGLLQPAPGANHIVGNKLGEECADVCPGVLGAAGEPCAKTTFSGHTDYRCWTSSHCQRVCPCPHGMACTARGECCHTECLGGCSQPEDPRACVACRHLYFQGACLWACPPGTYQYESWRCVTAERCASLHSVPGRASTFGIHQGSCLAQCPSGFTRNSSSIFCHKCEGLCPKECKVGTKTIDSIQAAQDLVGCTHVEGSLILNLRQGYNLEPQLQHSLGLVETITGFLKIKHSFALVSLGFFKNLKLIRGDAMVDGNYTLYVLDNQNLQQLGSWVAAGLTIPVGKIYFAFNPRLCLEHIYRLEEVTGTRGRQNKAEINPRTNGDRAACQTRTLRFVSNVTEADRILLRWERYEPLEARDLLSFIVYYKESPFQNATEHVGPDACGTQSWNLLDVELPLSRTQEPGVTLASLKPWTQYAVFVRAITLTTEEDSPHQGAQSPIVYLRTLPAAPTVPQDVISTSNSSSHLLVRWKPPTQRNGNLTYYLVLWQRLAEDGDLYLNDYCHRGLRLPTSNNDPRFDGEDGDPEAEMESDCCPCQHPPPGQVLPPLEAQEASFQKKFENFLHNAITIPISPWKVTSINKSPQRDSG
Insulin receptor-related protein (Homo sapiens), sequence (P14616 747-1297 limits assumed): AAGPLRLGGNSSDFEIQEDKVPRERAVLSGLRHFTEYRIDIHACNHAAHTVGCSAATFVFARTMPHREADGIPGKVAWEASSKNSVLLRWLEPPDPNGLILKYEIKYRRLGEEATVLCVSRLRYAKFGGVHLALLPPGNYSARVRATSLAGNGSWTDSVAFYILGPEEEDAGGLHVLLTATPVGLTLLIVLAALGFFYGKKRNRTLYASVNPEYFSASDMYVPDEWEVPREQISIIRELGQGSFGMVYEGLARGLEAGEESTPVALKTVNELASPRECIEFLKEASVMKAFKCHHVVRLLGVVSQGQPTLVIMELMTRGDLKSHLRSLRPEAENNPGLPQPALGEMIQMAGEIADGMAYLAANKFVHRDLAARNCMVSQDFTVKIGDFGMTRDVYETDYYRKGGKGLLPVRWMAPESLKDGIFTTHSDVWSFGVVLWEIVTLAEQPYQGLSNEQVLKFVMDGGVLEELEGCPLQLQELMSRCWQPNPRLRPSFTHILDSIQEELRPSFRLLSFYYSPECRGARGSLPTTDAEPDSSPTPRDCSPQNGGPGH
Tyrosine-protein kinase ZAP-70 (Homo sapiens), sequence (P43403 whole entry): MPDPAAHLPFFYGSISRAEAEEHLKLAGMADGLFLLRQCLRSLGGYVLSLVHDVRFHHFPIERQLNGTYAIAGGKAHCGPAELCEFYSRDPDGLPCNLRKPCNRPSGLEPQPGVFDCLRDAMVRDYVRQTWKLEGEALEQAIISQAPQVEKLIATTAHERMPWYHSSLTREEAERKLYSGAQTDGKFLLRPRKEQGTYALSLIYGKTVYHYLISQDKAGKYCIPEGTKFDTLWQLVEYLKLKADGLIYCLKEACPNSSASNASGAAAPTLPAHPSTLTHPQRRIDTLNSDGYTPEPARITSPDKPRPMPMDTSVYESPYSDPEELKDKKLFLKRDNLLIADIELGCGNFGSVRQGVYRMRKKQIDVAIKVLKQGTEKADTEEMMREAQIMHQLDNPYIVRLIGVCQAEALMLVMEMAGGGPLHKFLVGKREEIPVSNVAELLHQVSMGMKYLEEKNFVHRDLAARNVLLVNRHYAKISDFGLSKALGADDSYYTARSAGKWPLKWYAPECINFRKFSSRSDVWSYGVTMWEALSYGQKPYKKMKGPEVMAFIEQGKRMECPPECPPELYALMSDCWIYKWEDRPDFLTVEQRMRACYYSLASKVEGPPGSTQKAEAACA

In the case of `CCN1CCN(Cc2ccc(NC(=O)c3ccc(C)c(C#Cc4cccnc4)c3)cc2C(F)(F)F)CC1`, the residual binding, % of control [1] is reported as 0%, the residual binding, % of control [2] is reported as 79% and the inhibition [3] is reported as 0.15%. The inhibition [4] was 88%, the inhibition [5] was 16% and the residual binding, % of control [6] was 15%. It also gave a residual binding, % of control [7] of 12%, a residual binding, % of control [8] of 0.15% and an inhibition [9] of 81%. The residual binding, % of control [10] was 0.5%, the EC50 (BaF3) was less than 1 nM and the inhibition [11] was 1.3%. For the same compound, the residual binding, % of control [12] was 47%, the level, % of control [13] was 81% and the residual binding, % of control [14] was 62%. It also gave a level, % of control [15] of 21%, a residual binding, % of control [16] of 100% and a residual binding, % of control [17] of 1.6%. The inhibition [18] was 89%, the % of control [19] was 2.7% and the residual binding, % of control [20] was 0%. It also gave a residual binding, % of control [21] of 50%, a level, % of control [22] of 96% and an inhibition [23] of 43%. The residual binding, % of control [24] was 100%, the residual binding, % of control [25] was 100% and the residual binding, % of control [26] was 100%. The inhibition [27] was 4.8%, the inhibition [28] was 97% and the residual binding, % of control [29] was 78%. For the same compound, the residual binding, % of control [30] was 0%, the residual binding, % of control [31] was 0.65% and the inhibition [32] was 46%. It also gave a residual binding, % of control [33] of 100%, a level, % of control [34] of 100% and a residual binding, % of control [35] of 3.3%. For the same compound, the level, % of control [36] was 7.6%, the inhibition [37] was 90% and the level, % of control [38] was 1.8%. It also gave a residual binding, % of control [39] of 40%, an inhibition [40] of 9.1% and a level, % of control [41] of 0%. The residual binding, % of control [42] was 0.25%.
With `CCN1CCN(Cc2ccc(NC(=O)c3ccc(C)c(C#Cc4cnc5[nH]ccc5c4)c3)cc2C(F)(F)F)CC1` the residual binding, % of control [1] was 0.15%, the residual binding, % of control [2] was 68% and the inhibition [3] was 0%. It also gave an inhibition [4] of 67%, an inhibition [5] of 2.8% and a residual binding, % of control [6] of 32%. It also gave a residual binding, % of control [7] of 28%, a residual binding, % of control [8] of 0.1% and an inhibition [9] of 63%. It also gave a residual binding, % of control [10] of 2%, an EC50 (BaF3) of less than 1 nM and an inhibition [11] of 1.4%. For the same compound, the residual binding, % of control [12] was 14%, the level, % of control [13] was 90% and the residual binding, % of control [14] was 28%. It also gave a level, % of control [15] of 29%, a residual binding, % of control [16] of 83% and a residual binding, % of control [17] of 2%. It also gave an inhibition [18] of 100%, a % of control [19] of 5.7% and a residual binding, % of control [20] of 0.05%. It also gave a residual binding, % of control [21] of 61%, a level, % of control [22] of 23% and an inhibition [23] of 60%. For the same compound, the residual binding, % of control [24] was 100%, the residual binding, % of control [25] was 92% and the residual binding, % of control [26] was 96%. For the same compound, the inhibition [27] was 0.65%, the inhibition [28] was 98% and the residual binding, % of control [29] was 72%. The residual binding, % of control [30] was 0%, the residual binding, % of control [31] was 1.9% and the inhibition [32] was 34%. For the same compound, the residual binding, % of control [33] was 88%, the level, % of control [34] was 93% and the residual binding, % of control [35] was 1.8%. For the same compound, the level, % of control [36] was 7%, the inhibition [37] was 73% and the level, % of control [38] was 0.75%. The residual binding, % of control [39] was 20%, the inhibition [40] was 18% and the level, % of control [41] was 0%. The residual binding, % of control [42] was 0.15%.
